Source: PubChem BioAssay (NCI)
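Step 1: Grow cells in 96-well plates. Step 2: Expose to compound for 48 hours at 5 concentrations. Step 3: Interpolate endpoints linearly; if unreached, use highest concentration. At the GI50, growth is halved. At the TGI there is no net growth.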

Tests used:
Experiment in all cases: DTP human tumour cell line panel, 48 h
HL-60(TB) leukemia = test system: HL-60(TB) leukemia
KM12 colon = test system: KM12 colon
MDA-MB-231 breast = test system: MDA-MB-231 breast
RXF 393 renal = test system: RXF 393 renal
SF-268 CNS = test system: SF-268 CNS
SR leukemia = test system: SR leukemia
T-47D breast = test system: T-47D breast
A498 renal = test system: A498 renal
DLD-1 colon = test system: DLD-1 colon
MALME-3M melanoma = test system: MALME-3M melanoma
NCI-H226 lung = test system: NCI-H226 lung

N#Cc1c(NC(=S)NC(=O)c2ccccc2)nc2c(c1-c1ccccc1)CCCC2
TGI (HL-60(TB) leukemia): > 100 µM | TGI (KM12 colon): > 100 µM | TGI (MDA-MB-231 breast): > 100 µM | TGI (RXF 393 renal): 56.5 µM | TGI (SF-268 CNS): 27.2 µM | TGI (SR leukemia): > 100 µM | TGI (T-47D breast): > 100 µM

CCC(C)C(=O)c1c(O)c(C/C=C(\C)CCC=C(C)C)c(O)c2c(C(O)CC)cc(=O)oc12 (stereo unspecified)
TGI (A498 renal): 6.15 µM | TGI (DLD-1 colon): 11.3 µM | TGI (HL-60(TB) leukemia): 3.48 µM | TGI (KM12 colon): 11.4 µM | TGI (MALME-3M melanoma): 5.28 µM | TGI (NCI-H226 lung): 9.11 µM | TGI (RXF 393 renal): 7.19 µM | TGI (SF-268 CNS): 10.8 µM | TGI (SR leukemia): 3.48 µM

Brc1ccccc1-c1ncc(-c2ccccc2)o1
TGI (A498 renal): 60.5 µM | TGI (HL-60(TB) leukemia): > 100 µM | TGI (KM12 colon): 41.7 µM | TGI (MALME-3M melanoma): 76.3 µM | TGI (MDA-MB-231 breast): > 100 µM | TGI (RXF 393 renal): 55.9 µM | TGI (SF-268 CNS): > 100 µM | TGI (T-47D breast): > 100 µM

O=[N+]([O-])c1cn[n+]([O-])c2ccccc12
TGI (A498 renal): 40.1 µM | TGI (HL-60(TB) leukemia): 3.59 µM | TGI (KM12 colon): 18.4 µM | TGI (MALME-3M melanoma): 29.4 µM | TGI (MDA-MB-231 breast): 27.3 µM | TGI (NCI-H226 lung): 27.3 µM | TGI (SF-268 CNS): 17.9 µM | TGI (T-47D breast): 18 µM

CC[n+]1c(/C=C/c2ccc(N(CCCl)CCCl)cc2)ccc2cc(NC(=O)/C=C/c3ccccc3)ccc21
TGI (A498 renal): 27.4 µM | TGI (HL-60(TB) leukemia): 0.389 µM | TGI (KM12 colon): 1.58 µM | TGI (MALME-3M melanoma): 0.81 µM | TGI (MDA-MB-231 breast): 1.09 µM | TGI (NCI-H226 lung): 2.89 µM | TGI (RXF 393 renal): 2.84 µM | TGI (SF-268 CNS): 1.96 µM | TGI (SR leukemia): 0.728 µM | TGI (T-47D breast): 1.5 µM

COc1cc(C2c3cc4c(cc3[C@@H](Nc3cccc(C(C)=O)c3)C3COC(=O)[C@H]23)OCO4)cc(OC)c1O (stereo partly specified)
TGI (A498 renal): 1.6 µM | TGI (DLD-1 colon): 4.93 µM | TGI (HL-60(TB) leukemia): 0.328 µM | TGI (KM12 colon): 5.67 µM | TGI (MALME-3M melanoma): 15 µM | TGI (NCI-H226 lung): 1.99 µM | TGI (RXF 393 renal): 5.4 µM | TGI (SF-268 CNS): 13.1 µM

Cn1c(-c2ccc(/C=N\N3CCN(/N=C/c4ccc(-c5c[n+]6ccccc6n5C)cc4)CC3)cc2)c[n+]2ccccc12
TGI (A498 renal): 42.8 µM | TGI (HL-60(TB) leukemia): 56.9 µM | TGI (KM12 colon): > 100 µM | TGI (MDA-MB-231 breast): 75 µM | TGI (NCI-H226 lung): > 100 µM | TGI (RXF 393 renal): 60.9 µM | TGI (SF-268 CNS): > 100 µM | TGI (SR leukemia): > 100 µM | TGI (T-47D breast): > 100 µM

COc1ccc(-c2cc(N3CCN(c4ccccc4)CC3)c(C#N)c(=O)o2)cc1
TGI (A498 renal): 64.9 µM | TGI (DLD-1 colon): > 100 µM | TGI (HL-60(TB) leukemia): > 100 µM | TGI (KM12 colon): > 100 µM | TGI (MALME-3M melanoma): 53.7 µM | TGI (NCI-H226 lung): 9.94 µM | TGI (RXF 393 renal): 38 µM | TGI (SF-268 CNS): 49.3 µM | TGI (SR leukemia): > 100 µM

COc1ccc(NC(=O)/C(=C/c2ccc(N(CCC#N)CCC#N)cc2)NC(=O)c2cc([N+](=O)[O-])ccc2Cl)cc1
TGI (DLD-1 colon): > 100 µM | TGI (KM12 colon): > 100 µM | TGI (MALME-3M melanoma): > 100 µM | TGI (NCI-H226 lung): > 100 µM | TGI (RXF 393 renal): > 100 µM | TGI (SF-268 CNS): > 100 µM | TGI (SR leukemia): > 100 µM

COc1ccc(NC(=O)/C(CC2=Nc3ccc([N+](=O)[O-])cc3NC2O)=N\NC(=O)C[N+](C)(C)C)c(OC)c1 (stereo unspecified)
TGI (HL-60(TB) leukemia): > 100 µM | TGI (KM12 colon): > 100 µM | TGI (MDA-MB-231 breast): 42.1 µM | TGI (NCI-H226 lung): > 100 µM | TGI (RXF 393 renal): > 100 µM | TGI (SF-268 CNS): > 100 µM | TGI (SR leukemia): 48.6 µM

NCc1ccc(C(=O)O)cc1
TGI (A498 renal): > 100 µM | TGI (HL-60(TB) leukemia): > 100 µM | TGI (KM12 colon): > 100 µM | TGI (MALME-3M melanoma): > 100 µM | TGI (MDA-MB-231 breast): > 100 µM | TGI (NCI-H226 lung): > 100 µM | TGI (RXF 393 renal): > 100 µM | TGI (SF-268 CNS): > 100 µM | TGI (SR leukemia): > 100 µM | TGI (T-47D breast): > 100 µM

Cc1nc2ccccc2c(=O)[nH]1
TGI (A498 renal): > 100 µM | TGI (DLD-1 colon): > 100 µM | TGI (HL-60(TB) leukemia): > 100 µM | TGI (KM12 colon): > 100 µM | TGI (MALME-3M melanoma): > 100 µM | TGI (NCI-H226 lung): > 100 µM | TGI (RXF 393 renal): > 100 µM | TGI (SF-268 CNS): > 100 µM

ClCc1c(Cl)c(Cl)c(Cl)c(CCl)c1Cl
GI50 (A498 renal): 2.45 µM | TGI (A498 renal): 12.5 µM | GI50 (HL-60(TB) leukemia): 2.03 µM | TGI (HL-60(TB) leukemia): 4.07 µM | GI50 (KM12 colon): 1.85 µM | TGI (KM12 colon): 3.48 µM | GI50 (MALME-3M melanoma): 1.55 µM | TGI (MALME-3M melanoma): 3.79 µM | GI50 (MDA-MB-231 breast): 1.81 µM | TGI (MDA-MB-231 breast): 3.29 µM | GI50 (NCI-H226 lung): 2.53 µM | TGI (NCI-H226 lung): 7.3 µM | GI50 (RXF 393 renal): 1.71 µM | TGI (RXF 393 renal): 3.08 µM | GI50 (SR leukemia): 1.48 µM | TGI (SR leukemia): 5 µM | GI50 (T-47D breast): 1.99 µM | TGI (T-47D breast): 3.87 µM

NCc1ccccc1C1CSCSC1
TGI (DLD-1 colon): > 100 µM | TGI (HL-60(TB) leukemia): > 100 µM | TGI (KM12 colon): > 100 µM | TGI (MALME-3M melanoma): > 100 µM | TGI (NCI-H226 lung): > 100 µM | TGI (RXF 393 renal): > 100 µM | TGI (SF-268 CNS): > 100 µM

Cc1ccc(S(N)(=O)=O)cc1
TGI (A498 renal): > 1000 µM | TGI (HL-60(TB) leukemia): > 1000 µM | TGI (KM12 colon): > 1000 µM | TGI (MALME-3M melanoma): > 1000 µM | TGI (NCI-H226 lung): > 1000 µM | TGI (RXF 393 renal): > 1000 µM | TGI (SF-268 CNS): > 1000 µM | TGI (SR leukemia): > 1000 µM | TGI (T-47D breast): > 1000 µM

CCO/N=[N+](\[O-])N(CC)CC
TGI (A498 renal): > 100 µM | TGI (HL-60(TB) leukemia): > 100 µM | TGI (KM12 colon): > 100 µM | TGI (NCI-H226 lung): > 100 µM | TGI (RXF 393 renal): > 100 µM | TGI (SF-268 CNS): > 100 µM | TGI (SR leukemia): > 100 µM

CC(C)C[P+](c1ccccc1)(c1ccccc1)c1ccccc1
TGI (A498 renal): > 100 µM | TGI (HL-60(TB) leukemia): 24 µM | TGI (KM12 colon): 20.7 µM | TGI (MALME-3M melanoma): 83.6 µM | TGI (MDA-MB-231 breast): > 100 µM | TGI (NCI-H226 lung): > 100 µM | TGI (SF-268 CNS): > 100 µM | TGI (T-47D breast): > 100 µM

CC(C)(Br)C1(O)CCCN1C(=O)c1ccccc1 (stereo unspecified)
TGI (A498 renal): > 100 µM | TGI (DLD-1 colon): > 100 µM | TGI (HL-60(TB) leukemia): > 100 µM | TGI (KM12 colon): > 100 µM | TGI (MALME-3M melanoma): > 100 µM | TGI (RXF 393 renal): > 100 µM | TGI (SF-268 CNS): > 100 µM | TGI (SR leukemia): > 100 µM

CCOC(=O)/C=C(\C)c1ccc(OC)cc1
TGI (A498 renal): > 100 µM | TGI (DLD-1 colon): > 100 µM | TGI (HL-60(TB) leukemia): > 100 µM | TGI (KM12 colon): > 100 µM | TGI (MALME-3M melanoma): > 100 µM | TGI (NCI-H226 lung): > 100 µM | TGI (RXF 393 renal): > 100 µM | TGI (SF-268 CNS): > 100 µM | TGI (SR leukemia): > 100 µM
